Holding throughout (test): biochemical
What all share (assay type): binding

Test [1] addresses T1, panel of 442 kinases (Homo sapiens, UniProt O15146).
T1 construct: purchased Ambit Biosciences (scanMAXX KINOMEscan)
T1 sequence (O15146 24-869): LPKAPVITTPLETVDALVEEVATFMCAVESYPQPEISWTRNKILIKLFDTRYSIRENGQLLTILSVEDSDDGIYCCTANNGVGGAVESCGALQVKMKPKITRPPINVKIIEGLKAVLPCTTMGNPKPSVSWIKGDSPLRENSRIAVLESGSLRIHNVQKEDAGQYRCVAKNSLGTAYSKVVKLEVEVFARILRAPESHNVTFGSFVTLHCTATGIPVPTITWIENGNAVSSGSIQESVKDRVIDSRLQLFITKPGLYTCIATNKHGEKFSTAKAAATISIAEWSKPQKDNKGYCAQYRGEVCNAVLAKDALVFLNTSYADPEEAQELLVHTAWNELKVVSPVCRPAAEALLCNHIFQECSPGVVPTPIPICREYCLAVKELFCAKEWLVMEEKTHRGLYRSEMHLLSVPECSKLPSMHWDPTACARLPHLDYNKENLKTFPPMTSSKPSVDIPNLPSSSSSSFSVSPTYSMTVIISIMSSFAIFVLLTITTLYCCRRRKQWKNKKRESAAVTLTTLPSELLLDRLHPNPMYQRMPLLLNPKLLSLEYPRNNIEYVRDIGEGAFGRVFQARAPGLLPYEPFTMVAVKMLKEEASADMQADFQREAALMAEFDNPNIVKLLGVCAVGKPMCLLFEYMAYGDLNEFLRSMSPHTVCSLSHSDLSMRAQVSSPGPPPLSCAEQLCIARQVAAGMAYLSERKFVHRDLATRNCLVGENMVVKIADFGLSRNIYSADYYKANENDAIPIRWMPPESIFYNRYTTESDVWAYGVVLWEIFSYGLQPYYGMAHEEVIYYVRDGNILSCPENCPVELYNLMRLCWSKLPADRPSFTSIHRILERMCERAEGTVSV
The following applies: kinase MUSK; for remaining activity at 1 µM: read-out: % of control at 1 µM.

Test [2] has as its target T2, panel of 442 kinases (Homo sapiens, UniProt Q16832).
T2 construct: purchased Ambit Biosciences (scanMAXX KINOMEscan)
T2 sequence (Q16832 22-855): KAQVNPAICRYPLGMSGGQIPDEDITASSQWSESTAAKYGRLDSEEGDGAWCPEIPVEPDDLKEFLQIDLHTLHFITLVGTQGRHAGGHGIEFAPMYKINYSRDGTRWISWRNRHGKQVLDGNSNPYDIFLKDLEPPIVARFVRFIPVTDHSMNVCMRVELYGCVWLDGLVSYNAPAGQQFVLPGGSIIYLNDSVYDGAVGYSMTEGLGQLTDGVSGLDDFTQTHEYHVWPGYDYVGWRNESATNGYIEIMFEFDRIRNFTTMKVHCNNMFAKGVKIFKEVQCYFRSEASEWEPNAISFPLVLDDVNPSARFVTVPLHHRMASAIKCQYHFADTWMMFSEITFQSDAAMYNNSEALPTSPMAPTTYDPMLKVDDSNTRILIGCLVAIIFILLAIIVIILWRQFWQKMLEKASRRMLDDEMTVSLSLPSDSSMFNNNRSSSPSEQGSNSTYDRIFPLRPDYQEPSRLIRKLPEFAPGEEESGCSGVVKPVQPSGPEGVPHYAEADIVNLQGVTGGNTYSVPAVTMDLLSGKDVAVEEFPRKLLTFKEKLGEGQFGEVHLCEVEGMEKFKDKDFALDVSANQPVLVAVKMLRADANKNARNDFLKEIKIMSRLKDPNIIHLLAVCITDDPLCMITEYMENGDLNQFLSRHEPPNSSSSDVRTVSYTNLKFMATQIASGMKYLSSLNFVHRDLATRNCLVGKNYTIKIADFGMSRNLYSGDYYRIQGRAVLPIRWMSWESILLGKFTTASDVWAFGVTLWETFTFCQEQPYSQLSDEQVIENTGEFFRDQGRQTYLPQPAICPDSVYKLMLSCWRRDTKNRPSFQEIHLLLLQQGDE
The conditions noted are these: DDR2; for remaining activity at 1 µM: read-out: % of control at 1 µM.

Test [3] has as its target T3, panel of 442 kinases (Homo sapiens, UniProt O43353).
T3 construct: purchased Ambit Biosciences (scanMAXX KINOMEscan)
The conditions noted are these: kinase RIPK2; for remaining activity at 1 µM: read-out: RIPK2 (% of control at 1 µM).

The target in test [4] is T4, panel of 442 kinases (Homo sapiens, UniProt Q14164).
T4 construct: purchased Ambit Biosciences (scanMAXX KINOMEscan)
T4 sequence (Q14164 1-716): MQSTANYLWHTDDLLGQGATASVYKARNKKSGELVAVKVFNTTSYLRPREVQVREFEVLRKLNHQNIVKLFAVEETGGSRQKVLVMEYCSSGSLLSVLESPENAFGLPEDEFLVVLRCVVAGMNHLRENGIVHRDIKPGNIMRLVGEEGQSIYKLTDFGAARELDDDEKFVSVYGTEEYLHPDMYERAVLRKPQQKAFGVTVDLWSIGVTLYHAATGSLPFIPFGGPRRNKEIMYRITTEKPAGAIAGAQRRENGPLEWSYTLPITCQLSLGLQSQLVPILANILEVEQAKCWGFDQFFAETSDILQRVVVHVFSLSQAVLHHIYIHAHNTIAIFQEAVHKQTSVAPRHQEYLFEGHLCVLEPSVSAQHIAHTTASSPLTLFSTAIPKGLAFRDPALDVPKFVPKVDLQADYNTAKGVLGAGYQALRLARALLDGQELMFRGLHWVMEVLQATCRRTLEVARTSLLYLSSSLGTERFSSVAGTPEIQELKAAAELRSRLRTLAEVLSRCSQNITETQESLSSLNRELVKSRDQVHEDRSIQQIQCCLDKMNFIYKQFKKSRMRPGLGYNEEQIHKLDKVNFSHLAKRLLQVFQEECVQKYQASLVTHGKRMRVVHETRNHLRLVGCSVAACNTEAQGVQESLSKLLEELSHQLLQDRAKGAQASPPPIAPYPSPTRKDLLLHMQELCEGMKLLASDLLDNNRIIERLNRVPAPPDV
The conditions noted are these: kinase IKK-epsilon; for remaining activity at 1 µM: read-out: % of control at 1 µM.

[5] abbreviates: 10 µM, read-out: % of control at 10 µM.

Each structure is given as a SMILES string.

The results in this text go back to PMC5564600 (Oncotarget, 2017).

T3 sequence (O43353 whole entry): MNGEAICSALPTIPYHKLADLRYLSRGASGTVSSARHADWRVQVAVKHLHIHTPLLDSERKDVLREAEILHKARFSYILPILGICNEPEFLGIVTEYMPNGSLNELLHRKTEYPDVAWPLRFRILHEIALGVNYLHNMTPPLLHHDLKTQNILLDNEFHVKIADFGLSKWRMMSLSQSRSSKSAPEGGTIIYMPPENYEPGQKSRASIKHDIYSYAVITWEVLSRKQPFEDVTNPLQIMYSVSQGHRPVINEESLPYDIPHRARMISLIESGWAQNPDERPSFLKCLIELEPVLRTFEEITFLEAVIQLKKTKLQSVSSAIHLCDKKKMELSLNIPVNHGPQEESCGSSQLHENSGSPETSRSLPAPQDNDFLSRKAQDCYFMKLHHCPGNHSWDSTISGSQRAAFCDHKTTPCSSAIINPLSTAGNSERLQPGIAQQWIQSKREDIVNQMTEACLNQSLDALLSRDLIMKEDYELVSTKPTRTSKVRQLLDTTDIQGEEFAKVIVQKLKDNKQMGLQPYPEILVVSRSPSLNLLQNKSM

For `COc1ncc(-c2ccc3nccc(-c4ccnnc4)c3c2)cc1NS(=O)(=O)c1ccc(F)cc1F` [Omipalisib], the remaining activity at 1 µM came out at 100% at panel of 442 kinases [1], 100% at panel of 442 kinases [2], 59% on panel of 442 kinases [3] and 100% on panel of 442 kinases [4].
As to `Cn1c(=O)n(-c2ccc(C(C)(C)C#N)cc2)c2c3cc(-c4cnc5ccccc5c4)ccc3ncc21` [Dactolisib, 2-methyl-2-[4-(3-methyl-2-oxo-8-quinolin-3-yl-2,3-dihydroimidazo[4,5-c]quinolin-1-yl)-phenyl] propionitrile], the remaining activity at 1 µM on panel of 442 kinases [1] was found to be 100%; at panel of 442 kinases [2], 97%; at panel of 442 kinases [3] it was 37%; on panel of 442 kinases [4], 100%.
For `Nc1cc(C(F)(F)F)c(-c2cc(N3CCOCC3)nc(N3CCOCC3)n2)cn1` [Buparlisib], the remaining activity at 1 µM at panel of 442 kinases [1] was 86%; on panel of 442 kinases [2] it was 96%; on panel of 442 kinases [3], 100%; on panel of 442 kinases [4] it was 78%. The remaining activity at 10 µM was 55% on panel of 442 kinases [1] (setting [5]); 84% at panel of 442 kinases [2] (setting [5]); 100% at panel of 442 kinases [3] (10 µM, read-out: RIPK2 (% of control at 10 µM)); 100% at panel of 442 kinases [4] (setting [5]).
For the compound `FC(F)c1nc2ccccc2n1-c1nc(N2CCOCC2)nc(N2CCOCC2)n1` [ZSTK474, 2-(difluoromethyl)-1-[4,6-di(4-morpholinyl)-1,3,5-triazin-2-yl]-1H-benzimidazole], the remaining activity at 1 µM at panel of 442 kinases [1] is 100%; at panel of 442 kinases [2], 100%; at panel of 442 kinases [3] it was 83%; on panel of 442 kinases [4] it was 100%.
